The values that follow come from paper PMC9007913 (Angewandte Chemie (International ed. in English), 2022).

The subject of the test is ID8 cells. The experiment in a line: Inhibition assay of cellular uptake of OCTL14. It counts as cell-based, murine. Conditions: pre-blocked 5-30 min, then 2 μM OCTL14 for 30 min.
Regarding `O=C(N/N=C/c1cc(O)c(O)cc1O)c1cc2ccccc2cc1O` [Dyngo 4a], the “change in cellular uptake of OCTL14 after pretreatment with inhibitor” value is on record as “did not result in any appreciable change in cellular uptake”.
As for `CN(C)C(=O)CCSC(SCCC(=O)O)c1cccc(/C=C/c2ccc3ccc(Cl)cc3n2)c1` (stereo not shown) [MK-571], the entry is “little change in cellular uptake”; as for `O=C1OC(c2ccc(O)c(S(=O)(=O)O)c2)(c2ccc(O)c(S(=O)(=O)O)c2)c2c(Br)c(Br)c(Br)c(Br)c21` [BSP, bromsulphthalein], “did not result in significant changes in cellular uptake”.
Turning to `O=C1NC(=NS(=O)(=O)c2cccc3ccccc23)S/C1=C\c1ccc(Br)cc1` [Pitstop 2], the “change in cellular uptake of OCTL14 after pretreatment with inhibitor” value is on record as “did not result in any appreciable change in cellular uptake”.
